Test results reported in patent US20060281695A1, “Control of parasites in animals by N-[(phenyloxy)phenyl]-1,1,1-trifluoromethanesulfonamide and N-[(phenylsulfanyl)phenyl]-1,1,1-trifluoromethanesulfonamide derivatives” (priority 2005, published 2006).

Each compound was assayed on cat flea (Ctenocephalides felis) (assay: Ctenocephalides felis adulticide assay: single dose screen on treated glass surface (% mortality at 1.26 μg/cm^2, 24 hours)). Details: Ctenocephalides felis, 24 h, read-out: Ctenocephalides felis Mortality (%) 24 h.
Assay type: in vivo
Experimental: The LC50 value is the concentration, expressed as μg/cm^2, that was required to kill 50% of the sample of cat fleas on contact with the tested compound. Certain tests are also reported as the percent of a sample of cat fleas that were killed at a concentration of 1.26 μg/cm^2 (“% mortality”), for the compounds tested in this way.
b) Ctenocephalides felis Adulticide Assay: C.felis single dose screen
Mortality of fleas is the primary endpoint in the assay. […] The concentration chosen (1.26 μg/cm^2) is higher than that known to kill 90% of cat fleas (LC90) using the reference compound, permethrin.
The test species employed was the cat flea (Ctenocephalides felis). The strain used was obtained from external suppliers as pupae and held in the laboratory under testing conditions until the adults had emerged. Fifteen (15) fleas were used in a minimum of four replicates against a single concentration level (approximately 60 fleas). The insects were selected to be in the adult life stage, aged between 3 and 7 days post emergence.
The compounds to be tested were supplied as solids and were prepared in acetone as described below prior to testing. Samples were stored in a refrigerator (5±1° C.) unless otherwise specified.
During the mortality testing, the temperature was maintained at 25±1° C. Humidity was maintained at 75±5%. The base (area=159 mm^2) of a 100 mL glass Erlenmeyer (conical) flask provided the treatment surface. Flasks were pre-treated with Coatasil™ glass treatment to maximise bio-availability of test compounds by preventing them from binding to glass the surface. The base of the 100 mL Erlenmeyer flask was treated with 0.5 mL of test sample in acetone and gently swirled. This volume was sufficient to cover the base of the flask. Flasks were left to dry for 24 hours before flea exposure.
Adult cat fleas were placed into a sorting chamber, which allowed fleas to jump into the Erlenmeyer flasks. Fifteen (15) adult cat fleas were collected in each flask. The top of the flasks were then covered in Parafilm™ and small holes were made to allow gas exchange. A 0.5 mL volume of acetone as a solvent control was applied to the base of an Erlenmeyer flask and the testing proceeded in the same manner described above. […] Pooled 24 hour mortality data were converted to percentages and are summarized by Table 4, below.
In Table 7, provided below, are listed the Haemonchus contortus LD99 values (measured in micrograms/mL), the Ctenocephalides felis rapid screening values (measured in % mortality), the Ctenocephalides felis LC50 values (measured in micrograms/cm^2) and the Rhipicephalus sanguineus rapid screening values (measured in % mortality) for selected compounds in accordance with the present invention.

Point of comparison: O=S(=O)(Nc1ccc(Cl)cc1Nc1ccc(Cl)cc1)C(F)(F)F [Compound 91, N-[4-Chloro-2-(4-chlorophenylamino)-phenyl]-1,1,1-trifluoromethanesulphonamide], mortality at 1.26 µg/cm2, 1.26 µg/cm2 13%. Against it:
- O=S(=O)(N(Cc1ccccc1)c1ccc(Cl)cc1Oc1ccc(Cl)cc1Cl)C(F)(F)F [Compound 92, N-benzyl-N-[4-chloro-2-(2,4-dichlorophenoxy)phenyl]-1,1,1-trifluoromethanesulfonamide] — higher, 57%
- O=S(=O)(Nc1ccc(Oc2ccc(Cl)cc2Cl)c(Cl)c1)C(F)(F)F [Compound p7, N-[3-Chloro-4-(2,4-dichlorophenoxy)phenyl]-1,1,1-trifluoromethanesulfonamide] — higher, 22%
- CCOCN(c1cccc(Oc2ccc(Cl)cc2Cl)c1)S(=O)(=O)C(F)(F)F [Compound m7, N-Ethoxymethyl-N-[3-(2,4-dichlorophenoxy)phenyl]-1,1,1-trifluoromethanesulfonamide] — lower, 5%
- O=S(=O)(Nc1ccc(Cl)cc1Oc1ccccc1-c1ccccc1)C(F)(F)F [Compound 74, N-[2-(Biphenyl-2-yloxy)-4-chlorophenyl]-1,1,1-trifluoromethanesulfonamide] — higher, 81%

Same assay, conditions: in vivo

Point of comparison: N#Cc1ccc(NS(=O)(=O)C(F)(F)F)c(Oc2ccc(Cl)cc2Cl)c1 [Compound 52], “Ctenocephalides felis Mortality (%) 24 h” value 23%. Against it:
- COc1cccc(Oc2cc(Cl)ccc2NS(=O)(=O)C(F)(F)F)c1 [Compound 58] — higher, 87%
- N#Cc1cccc(Oc2cc(Cl)ccc2NS(=O)(=O)C(F)(F)F)c1 [Compound 50] — lower, 14%
- O=S(=O)(Nc1ccc(Oc2ccccc2)cc1)C(F)(F)F [p1] — higher, 84%
- O=S(=O)(Nc1ccc(Cl)cc1Oc1cc(Cl)ccc1Cl)C(F)(F)F [Compound 69] — higher, 58%
- O=S(=O)(Nc1cc(C(F)(F)F)ccc1Sc1ccc(Br)cc1)C(F)(F)F [Compound 67] — lower, 5%
- O=S(=O)(N(Cc1ccccc1)c1ccc(Cl)cc1Oc1ccccc1F)C(F)(F)F [Compound 81] — lower, 1%
- O=S(=O)(Nc1ccc(Oc2ccc(Cl)cc2Cl)c(C(F)(F)F)c1)C(F)(F)F [p9] — higher, 44%
- COc1ccc(Oc2cc(Cl)ccc2NS(=O)(=O)C(F)(F)F)cc1 [Compound 49] — higher, 24%
- CC(C)N(c1ccc(Cl)cc1Oc1ccccc1F)S(=O)(=O)C(F)(F)F [Compound 87] — higher, 24%
- Cc1ccccc1Oc1cc(C#N)ccc1NS(=O)(=O)C(F)(F)F [Compound 54] — lower, 5%
- O=S(=O)(Nc1cc(C(F)(F)F)ccc1Sc1ccccc1Cl)C(F)(F)F [Compound 64] — lower, 14%
- CCN(c1ccc(Cl)cc1Oc1ccc(Cl)cc1Cl)S(=O)(=O)C(F)(F)F [Compound 76] — lower, 3%
- O=S(=O)(Nc1ccc(Oc2ccc(Cl)cc2Cl)c(F)c1)C(F)(F)F [p8] — lower, 4%
- CC(C)(C)c1ccccc1Oc1cc(Cl)ccc1NS(=O)(=O)C(F)(F)F [Compound 42] — higher, 88%
- O=S(=O)(Nc1ccc(Oc2ccc(Cl)cc2Cl)cc1C(F)(F)F)C(F)(F)F [p6] — higher, 28%
- N#Cc1ccc(NS(=O)(=O)C(F)(F)F)c(Oc2ccc(Cl)cc2)c1 [Compound 51] — lower, 10%
- COCN(c1ccc(Cl)cc1Oc1ccccc1F)S(=O)(=O)C(F)(F)F [Compound 79] — higher, 60%
- CC(C)(C)C(=O)OCN(c1ccc(Cl)cc1Oc1ccccc1F)S(=O)(=O)C(F)(F)F [Compound 88] — higher, 73%
- O=S(=O)(Nc1cc(C(F)(F)F)ccc1Sc1ccccc1F)C(F)(F)F [Compound 66] — lower, 20%
- CN(c1ccc(Oc2ccccc2)cc1)S(=O)(=O)C(F)(F)F [p2] — higher, 64%
- O=S(=O)(Nc1ccc(Cl)cc1[S+]([O-])c1ccc(Cl)cc1)C(F)(F)F (stereo not drawn) [Compound 23, N-[4-chloro-2-(4-(chlorophenyl)sulfinyl)phenyl]-1,1,1-trifluoromethanesulfonamide] — lower, 3%
- CCOCN(c1ccc(Oc2ccccc2)cc1)S(=O)(=O)C(F)(F)F [p3] — higher, 72%
- CCCC(=O)OCN(c1ccc(Cl)cc1Oc1ccccc1F)S(=O)(=O)C(F)(F)F [Compound 89] — lower, 6%
- O=S(=O)(Nc1cccc(Oc2ccc(Cl)cc2Cl)c1)C(F)(F)F [Compound m6, N-[3-(2,4-dichlorophenoxy)phenyl]-1,1,1-trifuoromethanesulfonamide] — higher, 34%
- CC(C)c1ccccc1Oc1cc(Cl)ccc1NS(=O)(=O)C(F)(F)F [Compound 39] — higher, 75%
- N#Cc1ccc(NS(=O)(=O)C(F)(F)F)c(Oc2ccc(F)c(F)c2)c1 [Compound 57] — lower, 2%
- O=S(=O)(Nc1cc(C(F)(F)F)ccc1Sc1ccccc1)C(F)(F)F [Compound 63] — lower, 10%
- CN(c1ccc(Cl)cc1Oc1ccccc1F)S(=O)(=O)C(F)(F)F [Compound 77] — lower, 20%
- O=S(=O)(Nc1ccc(Cl)cc1Oc1ccc(Oc2ccccc2)cc1)C(F)(F)F [Compound 47] — higher, 36%
- CC(C)(C)C(=O)OCN(c1ccc(Oc2ccccc2)cc1)S(=O)(=O)C(F)(F)F [p5] — higher, 54%
- CN(c1cccc(Oc2ccccc2)c1)S(=O)(=O)C(F)(F)F [m2] — higher, 88%
- N#Cc1ccc(NS(=O)(=O)C(F)(F)F)c(Oc2ccccc2F)c1 [Compound 53] — lower, 9%
- CCN(c1ccc(Cl)cc1Oc1ccccc1F)S(=O)(=O)C(F)(F)F [Compound 78] — higher, 80%
- CC(C)(C)C(=O)OCN(c1cccc(Oc2ccccc2)c1)S(=O)(=O)C(F)(F)F [m5] — higher, 72%
- O=S(=O)(Nc1ccc(Cl)cc1Oc1ccccc1)C(F)(F)F [Compound 40] — higher, 39%
- COCN(c1ccc(Oc2ccccc2)cc1)S(=O)(=O)C(F)(F)F [p4] — higher, 49%
- O=S(=O)(Nc1ccc(Cl)cc1Sc1ccccc1Cl)C(F)(F)F [Compound 62] — higher, 25%
- CC(C)N(c1ccc(Cl)cc1Oc1ccc(Cl)cc1Cl)S(=O)(=O)C(F)(F)F [Compound 86] — higher, 66%
- CCOCN(c1ccc(Cl)cc1Oc1ccccc1F)S(=O)(=O)C(F)(F)F [Compound 80] — lower, 9%
- N#Cc1ccc(Oc2cc(Cl)ccc2NS(=O)(=O)C(F)(F)F)cc1 [Compound 56] — lower, 6%
- N#Cc1ccc(NS(=O)(=O)C(F)(F)F)c(Oc2cccc(C(F)(F)F)c2)c1 [Compound 60] — lower, 5%
- O=S(=O)(Nc1cc(C(F)(F)F)ccc1Sc1ccc(F)cc1)C(F)(F)F [Compound 65] — lower, 21%
